Reference: ChEMBL document CHEMBL1201862, “PubChem BioAssay data set” (2004)
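In this assay, cells in 96-well plates receive the compound at five concentrations for 48 hours. Endpoints are linearly interpolated between the surrounding concentrations. GI50 is the concentration that inhibits growth by half.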 Activity calls are given as the source filed them. No stated cut-off is given here; in the data, active = GI50 up to about 1.1 µM and inactive = higher.

Assays:
Assay in all cases: DTP human tumour cell line panel, 48 h
MDA-MB-435 = test system: MDA-MB-435
HOP-62 = test system: HOP-62
HOP-92 = test system: HOP-92
SF-539 = test system: SF-539
NCI-H522 = test system: NCI-H522
Malme-3M = test system: Malme-3M
OVCAR-5 = test system: OVCAR-5
MCF7 = test system: MCF7
NCI-H460 = test system: NCI-H460
MOLT-4 = test system: MOLT-4
HL-60 = test system: HL-60
SK-MEL-28 = test system: SK-MEL-28
SNB-19 = test system: SNB-19
NCI-H23 = test system: NCI-H23
K562 = test system: K562
UACC-257 = test system: UACC-257
A498 = test system: A498
HCT-15 = test system: HCT-15
MDA-N = test system: MDA-N
A549 = test system: A549

| Compound | GI50 (MDA-MB-435) | GI50 (HOP-62) | GI50 (HOP-92) | GI50 (SF-539) | GI50 (NCI-H522) | GI50 (Malme-3M) | GI50 (OVCAR-5) | GI50 (MCF7) | GI50 (NCI-H460) | GI50 (MOLT-4) | GI50 (HL-60) | GI50 (SK-MEL-28) | GI50 (SNB-19) | GI50 (NCI-H23) | GI50 (K562) | GI50 (UACC-257) | GI50 (A498) | GI50 (HCT-15) [µM] | GI50 (MDA-N) | GI50 (A549) |
| --- | --- | --- | --- | --- | --- | --- | --- | --- | --- | --- | --- | --- | --- | --- | --- | --- | --- | --- | --- | --- |
| CN(C)Cc1cc(C(F)(F)F)ccc1C(O)(c1ccccc1)c1ccccc1 | 18.8 µM (inactive) | 16.3 µM (inactive) | 13.6 µM (inactive) | 17 µM (inactive) | 15.6 µM (inactive) | 15.2 µM (inactive) | 14.4 µM (inactive) | 14.3 µM (inactive) | 14.6 µM (inactive) | 15.7 µM (inactive) | 7.76 µM (inactive) | 14.9 µM (inactive) | 16.7 µM (inactive) | 26.2 µM (inactive) | 6.9 µM (inactive) | 11.6 µM (inactive) | 11.7 µM (inactive) | 14.7 | 14.4 µM (inactive) | 15 µM (inactive) |
| Cc1ccc([S+](c2ccccc2)c2cc(C)ccc2C)cc1.O=C(OC(C(=O)[O-])C(OC(=O)c1ccccc1)C(=O)O)c1ccccc1 (stereo unspecified) | 5.3 µM (inactive) | 21.5 µM (inactive) | 13.5 µM (inactive) | 29 µM (inactive) | 3.55 µM (inactive) | 44.9 µM (inactive) | 23.2 µM (inactive) | 4.88 µM (inactive) | 10.7 µM (inactive) | 26.5 µM (inactive) | 3.13 µM (inactive) | 17.6 µM (inactive) | 4.83 µM (inactive) | 3.82 µM (inactive) | 2.53 µM (inactive) | 1.96 µM (inactive) | 39.2 µM (inactive) | > 100 | 3.89 µM (inactive) | 8.87 µM (inactive) |
| C[N+](C)(CCNc1ccc(NCC[N+](C)(C)Cc2ccc([N+](=O)[O-])cc2)c2c1C(=O)c1ccccc1C2=O)Cc1ccc([N+](=O)[O-])cc1 | > 100 µM (inactive) | > 100 µM (inactive) | > 100 µM (inactive) | > 100 µM (inactive) | > 100 µM (inactive) | > 100 µM (inactive) | > 100 µM (inactive) | > 100 µM (inactive) | > 100 µM (inactive) | > 100 µM (inactive) | > 100 µM (inactive) | – | > 100 µM (inactive) | > 100 µM (inactive) | 70.3 µM (inactive) | > 100 µM (inactive) | > 100 µM (inactive) | > 100 | > 100 µM (inactive) | > 100 µM (inactive) |
| COc1ccc(SCc2cc(OC)c(OC)c(OC)c2)cc1OC | 11.2 µM (inactive) | > 100 µM (inactive) | 25.6 µM (inactive) | > 80.2 µM (inactive) | 53.6 µM (inactive) | 55.2 µM (inactive) | > 94.6 µM (inactive) | 28.8 µM (inactive) | > 79.6 µM (inactive) | 46.2 µM (inactive) | 30.8 µM (inactive) | > 73.8 µM (inactive) | > 81.1 µM (inactive) | 27.5 µM (inactive) | 42.9 µM (inactive) | 45.6 µM (inactive) | 40.9 µM (inactive) | 34 | 24.5 µM (inactive) | 43.8 µM (inactive) |
| OC(C1CO1)C(O)C1CO1 (stereo unspecified) | 101 µM (inactive) | 7.26 µM (inactive) | > 75.5 µM (inactive) | 23.9 µM (inactive) | 46.9 µM (inactive) | 55.7 µM (inactive) | 77.1 µM (inactive) | 11.7 µM (inactive) | 3.33 µM (inactive) | 3.68 µM (inactive) | 3.21 µM (inactive) | 92.3 µM (inactive) | 58.9 µM (inactive) | 20.1 µM (inactive) | 81.3 µM (inactive) | 81.7 µM (inactive) | 74 µM (inactive) | 55.3 | 29.9 µM (inactive) | – |
| COc1ccc(-c2nc(SCC(=O)N/N=C/c3ccc(N(C)C)cc3)[nH]c2-c2ccc(OC)cc2)cc1 | 74.8 µM (inactive) | > 100 µM (inactive) | > 100 µM (inactive) | > 100 µM (inactive) | 31.3 µM (inactive) | > 100 µM (inactive) | 99.5 µM (inactive) | 13.5 µM (inactive) | 32.7 µM (inactive) | – | 11.5 µM (inactive) | > 100 µM (inactive) | > 100 µM (inactive) | > 100 µM (inactive) | 18.5 µM (inactive) | > 100 µM (inactive) | 71.9 µM (inactive) | 46.3 | 76.9 µM (inactive) | 17.6 µM (inactive) |
| CCN(CC)CC(O)CNc1ccc(NCC2CO2)c2c1C(=O)c1ccccc1C2=O (stereo unspecified) | 0.211 µM (active) | 1.15 µM (inactive) | 1.75 µM (inactive) | 1.32 µM (inactive) | 0.647 µM (active) | 1.93 µM (inactive) | 2.3 µM (inactive) | 0.0109 µM (active) | 0.695 µM (active) | – | 0.0236 µM (active) | 1.11 µM (active) | 1.68 µM (inactive) | 0.499 µM (active) | 0.0479 µM (active) | 1.48 µM (inactive) | 3.51 µM (inactive) | 0.638 | 0.323 µM (active) | 1.03 µM (active) |
| Cn1ncc2c(Cl)ncnc21 | > 100 µM (inactive) | > 100 µM (inactive) | > 100 µM (inactive) | > 100 µM (inactive) | > 100 µM (inactive) | – | > 100 µM (inactive) | > 100 µM (inactive) | > 100 µM (inactive) | > 100 µM (inactive) | > 100 µM (inactive) | > 100 µM (inactive) | > 100 µM (inactive) | > 100 µM (inactive) | > 100 µM (inactive) | > 100 µM (inactive) | > 100 µM (inactive) | > 100 | > 100 µM (inactive) | > 100 µM (inactive) |
| O=C(CCCCCCCCC(=O)NN1C(=O)/C(=C\c2ccc(O)c(O)c2)SC1c1ccc(Cl)cc1)NN1C(=O)/C(=C\c2ccc(O)c(O)c2)SC1c1ccc(Cl)cc1 (stereo unspecified) | 66.8 µM (inactive) | 10.3 µM (inactive) | 11.5 µM (inactive) | 13.4 µM (inactive) | 2.87 µM (inactive) | 23.7 µM (inactive) | > 86.3 µM (inactive) | 38.8 µM (inactive) | 30.6 µM (inactive) | 1.82 µM (inactive) | – | > 54.7 µM (inactive) | 16.9 µM (inactive) | 15.5 µM (inactive) | 21.6 µM (inactive) | 34 µM (inactive) | 19.8 µM (inactive) | 13.4 | > 88.1 µM (inactive) | 21.3 µM (inactive) |
| Cc1cc2[nH]c3c(C#N)c4c(c(=O)n3c2cc1C)CCCC4 | 67.3 µM (inactive) | – | 87.7 µM (inactive) | > 100 µM (inactive) | > 100 µM (inactive) | > 100 µM (inactive) | 18.7 µM (inactive) | > 100 µM (inactive) | > 100 µM (inactive) | > 100 µM (inactive) | 96.6 µM (inactive) | > 100 µM (inactive) | 31 µM (inactive) | > 100 µM (inactive) | 64.9 µM (inactive) | > 100 µM (inactive) | > 100 µM (inactive) | > 100 | 87.9 µM (inactive) | > 100 µM (inactive) |
| O=C1c2cc([N+](=O)[O-])sc2C(=O)c2c([N+](=O)[O-])csc21 | 0.168 µM (active) | – | 0.29 µM (active) | 0.349 µM (active) | 0.6 µM (active) | 0.274 µM (active) | 1.65 µM (inactive) | 0.365 µM (active) | 1.55 µM (inactive) | 0.229 µM (active) | 0.0382 µM (active) | 0.713 µM (active) | 1.63 µM (inactive) | 0.711 µM (active) | 0.116 µM (active) | 0.386 µM (active) | 1.92 µM (inactive) | 0.482 | 0.189 µM (active) | 1.9 µM (inactive) |
| FC(F)(F)c1cc(N(C2c3ccccc3C=Cc3ccccc32)P(Cl)Cl)cc(C(F)(F)F)c1 | 21.8 µM (inactive) | 17.6 µM (inactive) | 15.6 µM (inactive) | 26.7 µM (inactive) | 14.1 µM (inactive) | 17.5 µM (inactive) | 20 µM (inactive) | 20.7 µM (inactive) | – | 13.1 µM (inactive) | 20 µM (inactive) | 25.6 µM (inactive) | 21.8 µM (inactive) | 18 µM (inactive) | 15.2 µM (inactive) | 18.3 µM (inactive) | 26.9 µM (inactive) | 5.78 | 22 µM (inactive) | 18.3 µM (inactive) |
| COc1cc(C2SCC(=O)N2NC(=O)c2ccc(NC(C)=O)cc2OC)ccc1O (stereo unspecified) | > 100 µM (inactive) | 4.12 µM (inactive) | 29.4 µM (inactive) | 0.729 µM (active) | > 100 µM (inactive) | > 100 µM (inactive) | 23.1 µM (inactive) | 51.5 µM (inactive) | – | > 100 µM (inactive) | 54.2 µM (inactive) | > 100 µM (inactive) | 30.3 µM (inactive) | 92.9 µM (inactive) | > 100 µM (inactive) | – | 7.59 µM (inactive) | > 100 | > 100 µM (inactive) | 54.2 µM (inactive) |
| c1ccc(C/C(=N\Nc2nc3ccccc3[nH]2)c2ccccn2)cc1 | 0.385 µM (active) | < 0.0232 µM (active) | 0.0206 µM (active) | 0.196 µM (active) | < 0.01 µM (active) | < 0.0347 µM (active) | – | < 0.01 µM (active) | 0.126 µM (active) | < 0.01 µM (active) | – | 0.231 µM (active) | 0.254 µM (active) | 0.019 µM (active) | 0.0228 µM (active) | < 0.0107 µM (active) | 0.217 µM (active) | < 0.01 | 0.262 µM (active) | 0.069 µM (active) |
| CCOC(=O)C(=CNC(=S)Nc1c(CC)cccc1CC)C(=O)OCC | > 100 µM (inactive) | > 100 µM (inactive) | 94.4 µM (inactive) | > 100 µM (inactive) | > 100 µM (inactive) | > 100 µM (inactive) | > 100 µM (inactive) | > 100 µM (inactive) | > 100 µM (inactive) | > 100 µM (inactive) | > 100 µM (inactive) | > 100 µM (inactive) | > 100 µM (inactive) | > 100 µM (inactive) | > 100 µM (inactive) | > 100 µM (inactive) | > 100 µM (inactive) | – | > 100 µM (inactive) | > 100 µM (inactive) |
